Results reported in publication PMC8400033, “A Multicomponent Protocol for the Synthesis of Highly Functionalized γ-Lactam Derivatives and Their Applications as Antiproliferative Agents” (Pharmaceuticals, 2021).
Where two headings read alike, the source gives them in different places.

Assays:
[1] = tested on: SKOV3 (human ovarian carcinoma); experiment: CCK-8 antiproliferative assay, SKOV3 cell line
Protocol: (§1) In vitro cytotoxicity of the γ-lactam derivatives was evaluated by testing their antiproliferative activities against several human cancer cell lines. Cell counting kit (CCK-8) assay was used for the evaluation of growth inhibition.
(§2) All stock solutions of the investigated compounds were prepared by dissolving the powdered materials in appropriate amounts of DMSO. The final concentration of DMSO never exceeded 5% (v/v) in reactions. The stock solution was stored at 5 °C until it was used.
(§3) All were supplemented with 10% of fetal bovine serum (FBS) (Sigma-Aldrich, Madrid, Spain) and with 1% of NORMOCIN solution (Thermo Fisher, Waltham, Massachusetts, MA, USA). […] For cytotoxicity experiments, A549 cells were seeded in 96-well plates at a density of 2.5–3 × 10^3 cells per well and incubated overnight to achieve 70% of confluence at the time of exposition to the cytotoxic compound.

[2] = tested on: A549 (carcinomic human alveolar basal epithelial cell); experiment: CCK-8 antiproliferative assay, A549 cell line; assay type: cell-based
Protocol: as §1, §2, §3
(§4) Both were supplemented with 10% of fetal bovine serum (FBS) (Sigma-Aldrich, Spain) and with 1% of NORMOCIN solution (Thermo Fisher, Waltham, Massachusetts, MA, USA). […] For cytotoxicity experiments, A549 cells were seeded in 96-well plates at a density of 2.5–3 × 10^3 cells per well and incubated overnight to achieve 70% of confluence at the time of exposition to the cytotoxic compound.

[3] = tested on: MRC5 non-malignant lung fibroblasts; experiment: CCK-8 assay on non-malignant cells for selective toxicity; assay type: cell-based; details: Homo sapiens
Protocol: as §1, §2, §3, §4

[4] = tested on: RKO (human colon epithelial carcinoma); experiment: CCK-8 antiproliferative assay, RKO cell line; assay type: cell-based
Protocol: as §1, §2, §3

[5] = Homo sapiens, SK-OV-3, read-out: IC50 SKOV3, SKOV3 cell line, CCK-8
[6] = Homo sapiens, A549, A549 cell line, CCK-8, read-out: IC50 A549
[7] = Homo sapiens, SK-OV-3, read-out: IC50 SKOV3
[8] = MRC5 non-malignant lung fibroblasts, CCK-8, read-out: IC50 MRC5
[9] = Homo sapiens, A549, read-out: IC50 A549
[10] = Homo sapiens, A549, read-out: IC50 of individual enantiomers of 4v

Row | SMILES | IC50 [1, 5] | IC50 [2, 6] | IC50 [3, 8] | further results
1 | CCOC(=O)[C@]1(C)C[C@@H](Nc2ccc(C)cc2)C(=O)N1c1ccc(C)cc1 (relative stereo) [compound 17, Ethyl (2S*, 4R*)-2-methyl-5-oxo-1-(p-tolyl)-4-(p-tolylamino)-pyrrolidine-2-carboxylate] | > 50 µM | > 50 µM |  | melting point: 173 to 174 °C
2 | Cc1ccc(NC2=CCN(c3ccc(C)cc3)C2=O)cc1 [4a, 1-(p-Tolyl)-3-(p-tolylamino)-1,5-dihydro-2H-pyrrol-2-one] |  |  | > 50 µM | Cytotoxic activity against SKOV3 cell line, in words [1]: did not show activity; IC50 [1, 7]: > 50 µM; melting point: 178 to 180 °C
3 | Cc1ccc(NC2=CC(c3ccc(C)cc3)N(c3ccc(C)cc3)C2=O)cc1 (stereo not drawn) [4c] | > 50 µM | 21 ± 1.64 µM | > 50 µM | melting point: 210 to 213 °C
4 | Cc1ccc(NC2=CC(c3cccc(C)c3)N(c3ccc(C)cc3)C2=O)cc1 (stereo not drawn) [4d] | > 50 µM | 31.2 ± 1.04 µM | > 50 µM | 
5 | Cc1ccc(NC2=CC(c3ccccc3C)N(c3ccc(C)cc3)C2=O)cc1 (stereo not drawn) [4e] | > 50 µM | 41.3 ± 1.29 µM | > 50 µM | 
6 | Cc1ccc(NC2=CC(c3ccc(F)cc3)N(c3ccc(C)cc3)C2=O)cc1 (stereo not drawn) [4f] | 23.5 ± 0.75 µM | 10.7 ± 1.21 µM | > 50 µM | 
7 | Cc1ccc(NC2=CC(c3ccc([N+](=O)[O-])cc3)N(c3ccc(C)cc3)C2=O)cc1 (stereo not drawn) [4g] | 22.9 ± 0.63 µM | 17.1 ± 1.58 µM | 26.6 ± 2.89 µM | IC50 [4]: 23.8 ± 2.53 µM
8 | Cc1ccc(NC2=CC(c3cccc([N+](=O)[O-])c3)N(c3ccc(C)cc3)C2=O)cc1 (stereo not drawn) [4h] | 27.7 ± 1.32 µM | 7.33 ± 0.57 µM | 27.2 ± 1.24 µM | 
9 | Cc1ccc(NC2=CC(c3ccc(C(F)(F)F)cc3)N(c3ccc(C)cc3)C2=O)cc1 (stereo not drawn) [4i] | > 50 µM | > 50 µM |  | IC50 [4]: > 50 µM
10 | Cc1ccc(NC2=CC(c3ccc4ccn(C)c4c3)N(c3ccc(C)cc3)C2=O)cc1 (stereo not drawn) [4j] | > 50 µM | 19.3 ± 0.7 µM | > 50 µM | 
11 | Cc1ccc(NC2=CC(c3ccco3)N(c3ccc(C)cc3)C2=O)cc1 (stereo not drawn) [4k] | > 50 µM | 11.5 ± 0.85 µM | > 50 µM | 
12 | Cc1ccc(NC2=CC(c3cccs3)N(c3ccc(C)cc3)C2=O)cc1 (stereo not drawn) [4l] | 12.7 ± 1.83 µM | 12.7 ± 1.07 µM | > 50 µM | 
13 | Cc1ccc(NC2=CC(c3ccc4ccccc4c3)N(c3ccc(C)cc3)C2=O)cc1 (stereo not drawn) [4m] | 30.5 ± 1.34 µM | 12.1 ± 0.74 µM | 21.3 ± 0.74 µM | 
14 | Cc1ccc(NC2=CC(C)N(c3ccc(C)cc3)C2=O)cc1 (stereo not drawn) [4n] | 29.2 ± 1 µM | 15.7 ± 0.92 µM | > 50 µM | 
15 | Cc1ccc(NC2=CC(C(C)C)N(c3ccc(C)cc3)C2=O)cc1 (stereo not drawn) [4o] | > 50 µM | 11.1 ± 0.71 µM | > 50 µM | 
16 | Cc1ccc(NC2=CC(/C=C/c3ccccc3)N(c3ccc(C)cc3)C2=O)cc1 (stereo not drawn) [4r] | ~10 µM | ~10 µM | 18.2 ± 0.81 µM | IC50 ([1]; read-out: IC50 SKOV3, SKOV3 cell line, CCK-8): 9.59 ± 0.82 µM; IC50 ([2]; A549 cell line, CCK-8, read-out: IC50 A549): 10.3 ± 0.8 µM
17 | Cc1ccc(NC2=CC(c3c(F)c(F)c(F)c(F)c3F)N(c3ccc(C)cc3)C2=O)cc1 (stereo not drawn) [4t] | > 50 µM | 33.5 ± 1.68 µM | > 50 µM | IC50 [4]: > 50 µM
18 | Cc1ccc(NC2=CC(C(F)(F)F)N(c3ccc(C)cc3)C2=O)cc1 (stereo not drawn) [4u] | > 50 µM | > 50 µM |  | IC50 [4]: > 50 µM
19 | CCOP(=O)(CC1C=C(Nc2ccc(C)cc2)C(=O)N1c1ccc(C)cc1)OCC (stereo not drawn) [4v] |  |  |  | IC50 [1, 7]: > 50 µM; IC50 [2, 9]: 11.3 ± 1.8 µM; IC50 [4]: > 50 µM; IC50 ([3]; MRC5, read-out: IC50 MRC5): > 50 µM
20 | Cc1ccc(NC2=CC(CP(=O)(c3ccccc3)c3ccccc3)N(c3ccc(C)cc3)C2=O)cc1 (stereo not drawn) [4w] | 10.8 ± 0.88 µM | 5.67 ± 0.9 µM | 30.1 ± 0.49 µM | IC50 [4]: 28.1 ± 1.47 µM
21 | CC1=C(Nc2ccc(C)cc2)C(=O)N(c2ccc(C)cc2)C1c1ccc([N+](=O)[O-])cc1 (stereo not drawn) [5a] | > 50 µM | 2.05 ± 0.23 µM | > 50 µM | 

Row | SMILES | IC50 [1, 5] | IC50 [2, 6] | IC50 [3, 8] | further results
22 | Cc1ccc(NC2=C(Cc3ccccc3)C(c3ccc([N+](=O)[O-])cc3)N(c3ccc(C)cc3)C2=O)cc1 (stereo not drawn) [5b] | > 50 µM | 9.92 ± 1.15 µM | 47.6 ± 1.67 µM | 
23 | COC(=O)C1=C(Nc2ccc(C)cc2)C(=O)N(c2ccc(C)cc2)C1c1ccccc1 (stereo not drawn) [5c] |  |  | > 50 µM | melting point: 179 to 181 °C
24 | CCOP(=O)(OCC)C1=C(Nc2ccc(C)cc2)C(=O)N(c2ccc(C)cc2)C1 [5d] |  |  |  | IC50 [1, 7]: > 50 µM; IC50 [2, 9]: > 50 µM; IC50 [4]: > 50 µM; IC50 ([3]; MRC5, read-out: IC50 MRC5): > 50 µM
25 | COc1ccc(NC2=CC(c3ccccc3)N(c3ccc(OC)cc3)C2=O)cc1 (stereo not drawn) [6a] | 6.84 ± 0.59 µM | 12 ± 1.96 µM | > 50 µM | 
26 | COc1ccc(NC2=CC(c3ccc([N+](=O)[O-])cc3)N(c3ccc(OC)cc3)C2=O)cc1 (stereo not drawn) [6b] | > 50 µM | 31.5 ± 1.37 µM | > 50 µM | IC50 [4]: > 50 µM
27 | CCOP(=O)(CC1C=C(Nc2ccc(OC)cc2)C(=O)N1c1ccc(OC)cc1)OCC (stereo not drawn) [6c] |  |  |  | Cytotoxic activity against SKOV3 cell line, in words [1]: did not show any cytotoxicity; IC50 [1, 7]: > 50 µM; IC50 [2, 9]: 6.84 ± 0.22 µM; IC50 ([3]; MRC5, read-out: IC50 MRC5): > 50 µM
28 | O=C1C(Nc2ccc(Br)cc2)=CC(c2ccc([N+](=O)[O-])cc2)N1c1ccc(Br)cc1 (stereo not drawn) [8a] | > 50 µM | > 50 µM |  | 
29 | O=C1C(Nc2ccc(Br)cc2)=CC(c2ccc(C(F)(F)F)cc2)N1c1ccc(Br)cc1 (stereo not drawn) [8b] | > 50 µM | > 50 µM |  | IC50 [4]: > 50 µM
30 | O=C1C(Nc2cccc(C(F)(F)F)c2)=CC(c2ccc([N+](=O)[O-])cc2)N1c1cccc(C(F)(F)F)c1 (stereo not drawn) [11b] | 8.5 ± 0.54 µM | 2 ± 0.78 µM | 44.6 ± 1.16 µM | 
31 | O=C1C(Nc2ccc3ccccc3n2)=CC(c2ccc([N+](=O)[O-])cc2)N1c1ccc2ccccc2n1 (stereo not drawn) [12a] | > 50 µM | 9.25 ± 1.49 µM | > 50 µM | Cytotoxic activity against SKOV3 cell line, in words [1]: No activity
32 | Cc1ccc(N[C@@H]2C[C@H](C(F)(F)F)N(c3ccc(C)cc3)C2=O)cc1 [18a] | > 50 µM | 3.27 ± 0.65 µM | > 50 µM | 
33 | CCOP(=O)(C[C@H]1C[C@@H](Nc2ccc(C)cc2)C(=O)N1c1ccc(C)cc1)OCC [18b] |  |  |  | IC50 [1, 7]: > 50 µM; IC50 [2, 9]: 4.25 ± 0.65 µM; IC50 [4]: > 50 µM; IC50 ([3]; MRC5, read-out: IC50 MRC5): > 50 µM
34 | Cc1ccc(/N=C(/C=C/C=C/c2ccccc2)C(=O)Nc2ccc(C)cc2)cc1 [20a, (2Z, 3E, 5E)-6-Phenyl-N-(p-tolyl)-2-(p-tolylimino)hexa-3,5-dienamide] | > 50 µM | 6.9 ± 0.73 µM | > 50 µM | 
35 | Cc1ccc(\N=C(/C=C/C=C/c2ccc(C(F)(F)F)cc2)C(=O)Nc2ccc(C)cc2)cc1 [20b] | > 50 µM | 9.77 ± 0.17 µM | > 50 µM | 
36 | CCOP(=O)(C[C@H]1C=C(Nc2ccc(C)cc2)C(=O)N1c1ccc(C)cc1)OCC [(R)-4v] |  |  |  | IC50 [2, 10]: 9.23 ± 1.68 µM
37 | CCOP(=O)(C[C@@H]1C=C(Nc2ccc(C)cc2)C(=O)N1c1ccc(C)cc1)OCC [(S)-4v] |  |  |  | IC50 [2, 10]: 10.5 ± 0.8 µM
38 | COc1cccc2c1C(=O)c1c(O)c3c(c(O)c1C2=O)C[C@@](O)(C(=O)CO)C[C@@H]3O[C@H]1C[C@H](N)[C@H](O)[C@H](C)O1 [Doxorubicin, reference compound] |  |  | > 50 µM | 
39 | O=C1C(Nc2ccc(Cl)cc2)=CC(c2ccc([N+](=O)[O-])cc2)N1c1ccc(Cl)cc1 (stereo not drawn) [compound 7] | > 50 µM | 17.2 ± 2.1 µM | > 50 µM | 
40 | O=C1C(Nc2cccc(Cl)c2)=CC(c2ccc([N+](=O)[O-])cc2)N1c1cccc(Cl)c1 (stereo not drawn) [compound 9] | 16.1 ± 0.81 µM | 8.37 ± 1.27 µM | 23.8 ± 1.75 µM | 
41 | O=C1C(Nc2ccccc2F)=CC(c2ccc([N+](=O)[O-])cc2)N1c1ccccc1F (stereo not drawn) [compound 10] | 5.55 ± 0.62 µM | 4.36 ± 0.51 µM | > 50 µM | 
42 | CCOP(=O)(CC1=C(C)C(C)(Nc2ccc(C)cc2)C(=O)N1c1ccc(C)cc1)OCC (stereo not drawn) [compound 19, Diethyl ((3,4-dimethyl-5-oxo-1-(p-tolyl)-4-(p-tolylamino)-4,5-dihydro-1H-pyrrol-2-yl)methyl)phosphonate] |  |  |  | IC50 [1, 7]: > 50 µM; IC50 [2, 9]: 3.65 ± 0.25 µM; IC50 [4]: > 50 µM; IC50 ([3]; MRC5, read-out: IC50 MRC5): > 50 µM
